According to ChEMBL document CHEMBL2069226, “N-Aryl pyrrolidinonyl oxadiazoles as potent mGluR5 positive allosteric modulators” (Bioorg Med Chem Lett, 2012):
In brackets after ≈: the same amount, converted by molar mass.

How the values were obtained:
[1] = target: T1, Metabotropic glutamate receptor 5 (Homo sapiens, UniProt P41594); experiment: Positive allosteric modulation of human mGluR5 expressed in HEK293A cells assessed as stimulation of glutamate-induced calcium flux by FLIPR method; type: functional, cell-based; conditions: for Emax: HEK293-A
[2] = target: T1, Metabotropic glutamate receptor 5; experiment: Negative allosteric modulation of human mGluR5 expressed in HEK293A cells assessed as inhibition of glutamate-induced calcium flux by FLIPR method; type: functional, cell-based, HEK293-A; conditions: for inhibition: HEK293-A, concentration not given here
[3] = Solubility of the compound in […] by UPLC method; type: physicochemical
Cytochrome P450 1A2 = target: T2, Cytochrome P450 1A2 (Homo sapiens, UniProt P05177); experiment: Inhibition of CYP1A2; type: ADME
T2 sequence (P05177 whole entry): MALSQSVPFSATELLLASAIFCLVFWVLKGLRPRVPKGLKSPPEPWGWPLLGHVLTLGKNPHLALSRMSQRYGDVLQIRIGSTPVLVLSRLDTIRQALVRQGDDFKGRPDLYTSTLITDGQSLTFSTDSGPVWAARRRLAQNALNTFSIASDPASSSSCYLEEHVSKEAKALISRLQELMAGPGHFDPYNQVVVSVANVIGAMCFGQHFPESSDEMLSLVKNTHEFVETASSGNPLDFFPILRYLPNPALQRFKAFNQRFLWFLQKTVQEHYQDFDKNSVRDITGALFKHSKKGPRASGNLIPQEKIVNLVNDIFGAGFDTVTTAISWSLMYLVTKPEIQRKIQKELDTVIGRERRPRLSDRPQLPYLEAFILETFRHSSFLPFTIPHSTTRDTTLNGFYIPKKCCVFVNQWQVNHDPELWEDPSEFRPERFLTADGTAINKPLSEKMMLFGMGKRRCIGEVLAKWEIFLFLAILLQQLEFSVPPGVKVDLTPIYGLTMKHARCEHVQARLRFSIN

Cytochrome P450 2C9 = Cytochrome P450 2C9 (Homo sapiens, UniProt P11712); experiment: Inhibition of CYP2C9; type: ADME
Cytochrome P450 2C9, sequence (P11712 whole entry): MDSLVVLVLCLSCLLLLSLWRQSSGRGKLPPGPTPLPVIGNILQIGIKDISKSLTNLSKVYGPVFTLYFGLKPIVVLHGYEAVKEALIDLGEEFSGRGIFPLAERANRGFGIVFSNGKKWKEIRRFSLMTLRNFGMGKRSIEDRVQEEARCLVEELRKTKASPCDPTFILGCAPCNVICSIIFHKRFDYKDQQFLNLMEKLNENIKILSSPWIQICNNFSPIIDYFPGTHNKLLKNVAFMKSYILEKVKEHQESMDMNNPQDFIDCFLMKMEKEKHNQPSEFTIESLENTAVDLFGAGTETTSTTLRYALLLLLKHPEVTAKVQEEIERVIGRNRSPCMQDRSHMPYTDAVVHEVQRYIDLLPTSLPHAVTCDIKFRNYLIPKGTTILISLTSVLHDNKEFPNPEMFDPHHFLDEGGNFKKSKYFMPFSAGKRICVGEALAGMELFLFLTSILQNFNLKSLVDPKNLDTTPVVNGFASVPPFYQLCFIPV

Cytochrome P450 2C19 = Cytochrome P450 2C19 (Homo sapiens, UniProt P33261); experiment: Inhibition of CYP2C19; type: ADME
Cytochrome P450 2C19, sequence (P33261 whole entry): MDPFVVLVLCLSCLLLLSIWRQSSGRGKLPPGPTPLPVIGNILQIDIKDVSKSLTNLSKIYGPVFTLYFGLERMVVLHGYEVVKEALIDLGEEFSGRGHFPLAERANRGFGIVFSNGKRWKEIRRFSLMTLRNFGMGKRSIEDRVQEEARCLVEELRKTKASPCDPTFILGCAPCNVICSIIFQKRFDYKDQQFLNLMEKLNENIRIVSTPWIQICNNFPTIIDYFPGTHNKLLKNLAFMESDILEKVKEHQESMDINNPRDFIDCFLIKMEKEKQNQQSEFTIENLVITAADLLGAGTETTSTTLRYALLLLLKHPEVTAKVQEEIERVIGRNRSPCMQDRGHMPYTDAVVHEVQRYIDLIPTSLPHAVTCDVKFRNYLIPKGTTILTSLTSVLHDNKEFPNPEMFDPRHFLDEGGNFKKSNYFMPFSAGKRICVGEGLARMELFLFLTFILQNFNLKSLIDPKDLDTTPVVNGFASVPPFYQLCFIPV

Cytochrome P450 2D6 = Cytochrome P450 2D6 (Homo sapiens, UniProt P10635); experiment: Inhibition of CYP2D6; type: ADME
Cytochrome P450 2D6, sequence (P10635 whole entry): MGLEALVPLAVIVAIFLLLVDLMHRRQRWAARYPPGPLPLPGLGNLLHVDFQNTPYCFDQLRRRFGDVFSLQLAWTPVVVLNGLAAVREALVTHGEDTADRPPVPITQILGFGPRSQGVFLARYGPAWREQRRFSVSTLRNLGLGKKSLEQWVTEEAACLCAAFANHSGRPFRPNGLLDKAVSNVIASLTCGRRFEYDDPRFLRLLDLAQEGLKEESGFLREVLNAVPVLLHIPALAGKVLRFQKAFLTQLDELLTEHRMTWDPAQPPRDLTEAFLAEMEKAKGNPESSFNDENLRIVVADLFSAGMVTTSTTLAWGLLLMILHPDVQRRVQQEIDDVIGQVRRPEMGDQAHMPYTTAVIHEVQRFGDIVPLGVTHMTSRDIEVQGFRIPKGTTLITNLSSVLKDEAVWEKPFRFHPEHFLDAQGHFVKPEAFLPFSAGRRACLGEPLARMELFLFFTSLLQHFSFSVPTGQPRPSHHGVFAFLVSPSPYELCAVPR

Cytochrome P450 3A4 = Cytochrome P450 3A4 (Homo sapiens, UniProt P08684); experiment: Inhibition of CYP3A4; type: ADME
Cytochrome P450 3A4, sequence (P08684 whole entry): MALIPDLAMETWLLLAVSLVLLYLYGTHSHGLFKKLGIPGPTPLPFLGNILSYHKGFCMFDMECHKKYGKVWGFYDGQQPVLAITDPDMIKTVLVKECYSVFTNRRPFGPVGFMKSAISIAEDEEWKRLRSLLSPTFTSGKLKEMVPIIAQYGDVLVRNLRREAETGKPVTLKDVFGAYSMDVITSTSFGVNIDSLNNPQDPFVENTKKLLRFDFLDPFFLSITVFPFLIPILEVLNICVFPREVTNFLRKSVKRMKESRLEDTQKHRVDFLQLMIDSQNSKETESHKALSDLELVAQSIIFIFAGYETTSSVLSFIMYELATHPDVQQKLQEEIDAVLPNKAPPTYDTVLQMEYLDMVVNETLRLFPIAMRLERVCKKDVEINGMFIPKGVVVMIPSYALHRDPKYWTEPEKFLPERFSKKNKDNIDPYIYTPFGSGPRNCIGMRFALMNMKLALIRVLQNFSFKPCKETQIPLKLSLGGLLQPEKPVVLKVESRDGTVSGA

Liver [4] = experiment: Intrinsic clearance in human liver; type: ADME, tissue-based
Liver [5] = experiment: Intrinsic clearance in rat liver; type: ADME, tissue-based
[6] = target: T1, Metabotropic glutamate receptor 5; experiment: Displacement of [3H]NAM from mGluR5
Target sequence in this assay (P41594 whole entry): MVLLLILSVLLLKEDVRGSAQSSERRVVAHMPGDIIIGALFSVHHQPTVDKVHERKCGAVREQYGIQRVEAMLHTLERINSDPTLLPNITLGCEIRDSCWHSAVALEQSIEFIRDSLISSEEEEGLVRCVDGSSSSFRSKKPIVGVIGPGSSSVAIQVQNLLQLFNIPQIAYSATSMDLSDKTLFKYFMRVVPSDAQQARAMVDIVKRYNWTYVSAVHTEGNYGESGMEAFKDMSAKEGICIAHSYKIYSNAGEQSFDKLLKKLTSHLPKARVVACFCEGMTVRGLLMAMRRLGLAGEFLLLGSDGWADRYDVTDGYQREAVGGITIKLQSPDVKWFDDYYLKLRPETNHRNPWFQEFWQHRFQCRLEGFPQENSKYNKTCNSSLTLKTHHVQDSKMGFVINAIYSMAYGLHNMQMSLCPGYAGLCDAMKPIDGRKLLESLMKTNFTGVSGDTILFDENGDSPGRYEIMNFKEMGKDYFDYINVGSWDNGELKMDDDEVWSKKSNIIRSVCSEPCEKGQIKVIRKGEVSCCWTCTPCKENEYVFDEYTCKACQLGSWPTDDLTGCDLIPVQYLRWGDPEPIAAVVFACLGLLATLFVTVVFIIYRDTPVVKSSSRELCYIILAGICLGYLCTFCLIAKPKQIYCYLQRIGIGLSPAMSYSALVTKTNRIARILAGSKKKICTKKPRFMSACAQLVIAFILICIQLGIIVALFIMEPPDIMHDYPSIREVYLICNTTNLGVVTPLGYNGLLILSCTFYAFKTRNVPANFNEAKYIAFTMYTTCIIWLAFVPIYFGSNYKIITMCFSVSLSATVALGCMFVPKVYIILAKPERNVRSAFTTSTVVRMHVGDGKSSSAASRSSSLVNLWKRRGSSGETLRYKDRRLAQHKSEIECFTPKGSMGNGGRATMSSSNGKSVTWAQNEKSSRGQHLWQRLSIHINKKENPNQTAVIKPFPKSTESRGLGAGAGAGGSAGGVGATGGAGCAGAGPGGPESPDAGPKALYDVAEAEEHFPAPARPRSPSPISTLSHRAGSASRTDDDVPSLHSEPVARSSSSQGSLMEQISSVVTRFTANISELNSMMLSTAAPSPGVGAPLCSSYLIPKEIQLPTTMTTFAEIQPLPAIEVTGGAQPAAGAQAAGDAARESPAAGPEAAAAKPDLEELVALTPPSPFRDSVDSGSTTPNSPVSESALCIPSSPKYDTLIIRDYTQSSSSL

[7] = Drug uptake in rat brain at 10 mg/kg, ip administered as single dose after 1 hr; type: ADME, organism-based; design: dose 10 mg/kg, route intraperitoneal; conditions: read-out: Drug uptake
[8] = Plasma concentration in rat at 10 mg/kg, ip administered as single dose after 1 hr; type: ADME, organism-based; design: dose 10 mg/kg, route intraperitoneal
[9] = Plasma protein binding in human plasma; type: ADME, cell-free; conditions: read-out: PPB (converted)
[10] = Plasma protein binding in rat plasma; type: ADME, cell-free; conditions: read-out: PPB (converted)
[11] = Ratio of drug uptake in brain to plasma in rat at 10 mg/kg, ip administered as single dose after 1 hr; type: ADME, organism-based; design: dose 10 mg/kg, route intraperitoneal; conditions: read-out: BPR
[12] = Apparent permeability from apical to basolateral direction in MDCKI cells expressing MDR; type: ADME, cell-based, Canis lupus familiaris; conditions: dog, MDCK-MDR1
[13] = Apparent permeability from basolateral to apical direction in MDCKI cells expressing MDR; type: ADME, cell-based, Canis lupus familiaris; conditions: dog, MDCK-MDR1

| Emax [1] [%] | EC50 [1] [nM] | IC50 [2] [nM] | inhibition [2] [%] | SMILES | further results |
| --- | --- | --- | --- | --- | --- |
| 55 | – | – | – | O=C1CC(c2nc(-c3cccc(Cl)c3)no2)CN1c1ccc(F)cc1 (racemic) [listing 1 of 2 here] | – |
| 140 | 88 | – | – | O=C1CC(c2nc(-c3cccc(F)c3)no2)CN1c1ccc(F)cc1 (configuration not stated) | – |
| 47 | > 10000 | 3520 | 2 | COc1ccc(N2CC(c3nc(-c4cccc(Cl)c4)no3)CC2=O)cc1 (configuration not stated) | – |
| 57 | 310 | > 10000 | – | Cc1ccc(N2CC(c3nc(-c4cccc(Cl)c4)no3)CC2=O)cc1C (configuration not stated) | – |
| 7 | > 10000 | 1100 | 71 | O=c1sc2ccccc2n1Cc1nc(-c2cccc(Cl)c2)no1 | – |
| -28 | > 10000 | 770 | 84 | O=C1COc2ccccc2N1Cc1nc(-c2cccc(Cl)c2)no1 | – |
| 130 | 1200 | – | – | Cc1ccc(N2CC(c3nc(-c4cccc(F)c4)no3)CC2=O)cc1 (configuration not stated) | – |
| 69 | 630 | > 10000 | -2.5 | Cc1ccc(N2CC(c3nc(-c4cccc(Cl)c4)no3)CC2=O)cc1 (configuration not stated) | – |
| 44 | 1100 | – | – | O=C1CC(c2nc(-c3ccc(Cl)cc3)no2)CN1c1ccc(Cl)c(Cl)c1 (configuration not stated) | – |
| – | 12.5 | – | – | Cc1cccc(-c2noc(C3CC(=O)N(c4ccc(F)cc4)C3)n2)c1 (racemic) [listing 1 of 2 here] | solubility [3]: 2.7 µM (≈ 0.911 µg/mL); IC50 (Cytochrome P450 1A2): > 11000 nM; IC50 (Cytochrome P450 2C9): > 11000 nM; IC50 (Cytochrome P450 2C19): > 11000 nM; IC50 (Cytochrome P450 2D6): > 11000 nM; IC50 (Cytochrome P450 3A4): > 11000 nM; CLH (Liver [4]): 2.7 L/min; CLH (Liver [5]): 27 mL/min |
| – | 10.7 | > 10000 | – | O=C1CC(c2nc(-c3cccc(Cl)c3)no2)CN1c1ccc(F)cc1 (racemic) [listing 2 of 2 here] | solubility [3]: 15 µM (≈ 5.37 µg/mL); Ki [6]: 410 nM; concentration at 1 h [7]: 86 ng/g; concentration at 1 h [8]: 22 ng/mL; CLH (Liver [4]): 0.6 L/min; CLH (Liver [5]): 22 mL/min |
| 28 | > 10000 | 2300 | 85 | Cc1cccc(N2CC(c3nc(-c4cccc(Cl)c4)no3)CC2=O)c1 (configuration not stated) | – |
| 48 | 1100 | – | – | COc1cccc(-c2noc(C3CC(=O)N(c4ccc(F)cc4)C3)n2)c1 (configuration not stated) | – |
| -29 | > 10000 | 370 | 91 | Cc1ccccc1N1CC(c2nc(-c3cccc(Cl)c3)no2)CC1=O (configuration not stated) | – |
| 42 | 350 | – | – | O=C1CC(c2nc(-c3ccccc3)no2)CN1c1ccccc1 (configuration not stated) | – |
| 41 | 384 | – | – | Cc1ccc(N2CC(c3nc(-c4ccccc4)no3)CC2=O)cc1 (configuration not stated) | – |
| 140 | 3200 | – | – | O=C1CC(c2nc(-c3cccc(F)c3)no2)CN1c1ccc(Cl)c(Cl)c1 (configuration not stated) | – |
| 25 | > 10000 | – | – | O=C1CC(c2nc(-c3cccc(C(F)(F)F)c3)no2)CN1c1ccc(F)cc1 (configuration not stated) | – |
| – | 8.8 | – | – | O=C1CC(c2nc(-c3cccc(Cl)c3)no2)CN1c1ccc(F)cc1 (single isomer, unassigned; (-)) | Ki [6]: 150 nM |
| 4 | > 10000 | 2100 | 50 | O=c1oc2ccccc2n1Cc1nc(-c2cccc(Cl)c2)no1 | – |
| 120 | 630 | – | – | O=C1CC(c2nc(-c3cccc(F)c3)no2)CN1c1ccc(Cl)cc1 (configuration not stated) | – |
| – | – | 1600 | – | C[C@H](c1ccccc1)N1C[C@H](c2nc(-c3cccc(Cl)c3)no2)CC1=O | solubility [3]: 23 µM (≈ 8.46 µg/mL) |
| 90 | 240 | – | – | Cc1cccc(-c2noc(C3CC(=O)N(c4ccc(C)c(Cl)c4)C3)n2)c1 (configuration not stated) | – |
| 51 | 460 | > 10000 | 8.3 | O=C1CC(c2nc(-c3cccc(Cl)c3)no2)CN1c1ccc(Cl)c(Cl)c1 (configuration not stated) | – |
| 33 | 1700 | – | – | O=C1CC(c2nc(-c3ccc(F)cc3)no2)CN1c1ccc(Cl)cc1 (configuration not stated) | – |

| Emax [1] [%] | EC50 [1] [nM] | IC50 [2] [nM] | inhibition [2] [%] | SMILES | further results |
| --- | --- | --- | --- | --- | --- |
| 50 | 4800 | – | – | COc1cccc(-c2noc(C3CC(=O)N(c4ccc(Cl)cc4)C3)n2)c1 (configuration not stated) | – |
| 1.6 | 170 | – | – | Cc1cccc(-c2noc(C3CC(=O)N(c4ccc(Cl)cc4)C3)n2)c1 (configuration not stated) | – |
| 130 | 58 | – | – | O=C1CC(c2nc(-c3ccccc3)no2)CN1c1ccc(F)cc1 (configuration not stated) | – |
| -29 | > 10000 | 550 | 82 | O=C1CCc2ccc(Cl)cc2N1CCc1nc(-c2cccc(Cl)c2)no1 | – |
| – | 5.1 | – | – | Cc1cccc(-c2noc(C3CC(=O)N(c4ccc(F)cc4)C3)n2)c1 (single isomer, unassigned; (-)) | Ki [6]: 230 nM; fraction unbound [9]: 0.007; fraction unbound [10]: 0.003; concentration at 1 h [7]: 342 ng/g; concentration at 1 h [8]: 46 ng/mL; Kp at 1 h [11]: 7.5; Papp A→B [12]: 20 ×10⁻⁶ cm/s; Papp B→A [13]: 6.4 ×10⁻⁶ cm/s; CLH (Liver [4]): 1 L/min; CLH (Liver [5]): 20 mL/min |
| – | – | – | – | O=C1CC(c2nc(Cc3ccccc3)no2)CN1c1ccc(F)cc1 (configuration not stated) | solubility [3]: 23 µM (≈ 7.76 µg/mL) |
| 32 | 3400 | – | – | Cc1ccc(N2CC(c3nc(-c4cccc(C(F)(F)F)c4)no3)CC2=O)cc1 (configuration not stated) | – |
| – | – | – | – | CC(C)N1CC(c2nc(-c3cccc(Cl)c3)no2)CC1=O (configuration not stated) | solubility [3]: 23 µM (≈ 7.03 µg/mL) |
| 150 | 1300 | – | – | Cc1ccc(N2CC(c3nc(-c4cccc(C)c4)no3)CC2=O)cc1 (configuration not stated) | – |
| 65 | 390 | – | – | Cc1cccc(-c2noc(C3CC(=O)N(c4ccc(Cl)c(Cl)c4)C3)n2)c1 (configuration not stated) | – |
| -31 | > 10000 | 630 | 93 | COc1ccccc1N1CC(c2nc(-c3cccc(Cl)c3)no2)CC1=O (configuration not stated) | – |
| – | – | 3600 | – | O=C1CC(c2nc(-c3cccc(Cl)c3)no2)CN1Cc1ccc(F)cc1 (configuration not stated) | solubility [3]: 23 µM (≈ 8.55 µg/mL) |
| 78 | – | – | – | Cc1cccc(-c2noc(C3CC(=O)N(c4ccc(F)cc4)C3)n2)c1 (racemic) [listing 2 of 2 here] | – |
| -29 | > 10000 | 1100 | 89 | O=C1CC(c2nc(-c3cccc(Cl)c3)no2)CN1c1ccccc1F (configuration not stated) | – |
| -37 | > 10000 | 690 | 92 | COc1cccc(N2CC(c3nc(-c4cccc(Cl)c4)no3)CC2=O)c1 (configuration not stated) | – |
| -29 | > 10000 | 800 | 88 | O=C1COc2ccccc2N1CCc1nc(-c2cccc(Cl)c2)no1 | – |
| -31 | > 10000 | 680 | 93 | O=C1CC(c2nc(-c3cccc(Cl)c3)no2)CN1c1ccccc1Cl (configuration not stated) | – |
| 1 | > 10000 | – | – | Cc1cccc(-c2noc(C3CC(=O)N(c4ccc(Cl)cc4)C3)n2)n1 (configuration not stated) | solubility [3]: 26 µM (≈ 9.22 µg/mL) |
| -15 | > 10000 | – | – | Cc1cccc(-c2noc(C3CC(=O)N(c4ccc(F)cc4)C3)n2)n1 (configuration not stated) | solubility [3]: 26 µM (≈ 8.8 µg/mL) |
| 44 | 2300 | – | – | O=C1CC(c2nc(-c3ccc(F)cc3)no2)CN1c1ccc(Cl)c(Cl)c1 (configuration not stated) | – |
| -41 | > 10000 | – | – | O=C1CC(c2nc(-c3ccccn3)no2)CN1c1ccc(F)cc1 (configuration not stated) | solubility [3]: 26 µM (≈ 8.43 µg/mL) |
| -18 | > 10000 | 1100 | 68 | O=C1CC(c2nc(-c3cccc(Cl)c3)no2)CN1c1cccc(Cl)c1 (configuration not stated) | – |
| 67 | 140 | > 10000 | 44 | O=C1CC(c2nc(-c3cccc(Cl)c3)no2)CN1c1ccc(Cl)cc1 (configuration not stated) | – |
| – | – | 920 | – | CC(C)CN1CC(c2nc(-c3cccc(Cl)c3)no2)CC1=O (configuration not stated) | solubility [3]: 23 µM (≈ 7.36 µg/mL) |
